Patent publication US10857201B2, “NNIF and nNIF-related peptides and related methods” (UNIVERSITY OF UTAH RESEARCH FOUNDATION, priority 2016, dated 2020)
Entries after “also recorded” stand apart in the source; their conditions may differ.

How the values were obtained:
[1] = test system: neutrophil extracellular trap (NET) formation; assay: In vitro NET formation by stimulated human PMNs (live cell imaging, NET-associated histone H3 release); format: cell-based; settings: for PMA-stimulated NET deployment: PMA 20 nM, 1 hour preincubation; for PMA-stimulated NET deployment / NET formation triggered by heme: peptides 1 nM; for NET formation triggered by LPS: adult PMNs preincubated with agent, LPS 100 ng/mL, 1 hour; for NET formation triggered by heme: heme 1 μM; for relative inhibition of NETosis (order of potency): initial comparison of NRPs
Description: Qualitative assessment of NET formation was performed as previously reported (see Yost C C, et al., Blood. 2009; 113 (25):6419-27 and McInturff A M, et al., Blood. 2012; 120 (15):3118-25). Briefly, primary PMNs isolated from preterm infants, healthy term infants, and healthy adults (2×10^6 cells/mL) were incubated with control buffer or stimulated with indicated agonists or bacteria for 1 hour at 37° C. in 5% CO2/95% air on glass coverslips coated with poly-L-lysine. For selected experiments, primary PMNs were pre-incubated with autologous plasma, cord blood plasma, nNIF (0.2-70 nM), CRISPP (0.2-70 nM), nNIF-SCR (1 nM), or CRISPP-SCR (1 nM) for one hour prior to stimulation. After pre-incubation and/or stimulation, PMNs were gently washed with PBS and incubated with a mixture of cell permeable (SYTO® Green, MOLECULAR PROBES®) and impermeable (SYTOX® Orange, MOLECULAR PROBES®) DNA fluorescent dyes. Confocal microscopy was accomplished using a FV1000 IX81 confocal microscope and FLUOVIEW™ software (OLYMPUS™). Both 20× and 60× objectives were used. Z-series images were obtained at a step size of 1 μm over a range of 20 μm for each field. FLUOVIEW™ and ADOBE™ PHOTOSHOP™ CS2 software was used for image processing.
Using BSL 2 safety protocols, primary PMNs isolated from healthy adults (2×10^6 cells/mL) were incubated with mock infection buffer or live dengue virus (M010.05) as for live cell imaging. After a 1-hour incubation, the infected PMNs were fixed with 2% p-FA for 10 minutes prior to incubation with fluorescently-labeled, cell-permeable and cell-impermeable DNA dyes, and imaged as for live cell imaging using confocal microscopy.
NET-associated histone H3 content was determined as previously described (see McInturff A M, et al., Blood. 2012; 120 (15):3118-25). After live cell imaging of control and stimulated primary PMNs (2×10^6/mL; various agonists), the cells were incubated with PBS containing DNase (40 U/mL) for 15 minutes at room temperature to break down and release NETs formed in response to stimulation. The supernatant was gently removed and centrifuged at 420×g for 5 minutes. The cell-free supernatant was then mixed 3:1 with 4× Laemmli buffer prior to western blotting. A polyclonal primary antibody against human histone H3 protein (CELL SIGNALING®) and infrared-conjugated secondary antibodies (LI-COR®) were used. Imaging and densitometry were performed on the ODYSSEY® infrared imaging system)(LI-COR®). This assay was previously validated as a surrogate for NET formation under in vitro conditions (see McInturff A M, et al., Blood. 2012; 120 (15):3118-25) as employed in the present studies.
Without being bound by any specific theory, it was hypothesized that placentally expressed HTRA1, a serine protease, regulates the formation of NET-inhibitory peptides through cleavage of AAT. To test this hypothesis, term and preterm placenta were assessed for HTRA1 expression via western blotting. HTRA1 and AAT plasma expression from term and preterm infants and adults were determined by ELISA. Bioactive (0.5 μg) or placental eluted HTRA1 was incubated with AAT (8 μM) for 18 hours at 37° C. Carboxy-terminus fragments of AAT were detected using western blotting and mass spectrometry. The reaction products were incubated for 1 hour with PMNs isolated from healthy adults prior to LPS stimulation (100 ng/mL) and assessed for NET formation using live cell imaging. Reactive oxygen species were assessed using flow cytometry, chemotaxis using a modified Boyden chamber assay, and bacterial killing using E. coli.

neutrophil elastase (NE) = biological target: T1, neutrophil elastase (NE) (Homo sapiens, UniProt P08246); assay: Neutrophil elastase activity assay; format: biochemical; settings: in vitro; (MeOSuc)-AAPV-(pNA) 160 μM, 3 hours, 37° C., and additional assays
T1 construct: purchased SIGMA-ALDRICH
T1 sequence (P08246 30-267): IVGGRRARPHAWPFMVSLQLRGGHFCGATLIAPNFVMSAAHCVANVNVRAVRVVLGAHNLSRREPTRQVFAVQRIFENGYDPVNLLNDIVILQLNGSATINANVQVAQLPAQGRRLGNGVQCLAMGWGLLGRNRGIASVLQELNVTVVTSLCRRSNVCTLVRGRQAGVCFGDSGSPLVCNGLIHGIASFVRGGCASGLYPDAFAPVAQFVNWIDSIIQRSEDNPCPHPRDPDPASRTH
Description: FIG. 12B depicts NE enzyme activity that was examined by cleavage of the synthetic substrate (MeOSuc)-AAPV-(pNA) to (MeOSuc)-AAPV and (pNA) as products detected by liquid chromatography and chromatogram peak identification by mass spectroscopy. (MeOSuc)-AAPV-(pNA) (160 μm) was incubated with NE (2 mU), sivelestat (160 μm), or NE and sivelestat (left panel) or with NE (2 mU), nNIF ([…]), or NE and nNIF (right panel) for 3 hours at 37° C. Chromatograms are offset on the X and Y axes for ease of comparison. In the presence of NE alone, the (MeOSvc)-AAPV-(pNA) peak was almost completely eliminated and (MeOSvc)-AAPV and (pNA) peaks were generated. […] In contrast, it was not inhibited by nNIF.
Synthetic fluorogenic substrate of NE, (MeOSuc)-AAPV-(pNA) (160 μM), was incubated with bioactive NE (500 nM)±the NE inhibitor, sivelestat (160 μM) or nNIF (50 nM), for 3 hours at 37° C. The reactions were quenched with 5% glacial acetic acid and centrifuged at 14,000 rpm for 5 minutes. Chromatograms were obtained using an AGILENT™ 1100 Series HPLC and a PHENOMENEX® 5 μm C18 LUNA® column (100 Å, 4.6×150 mm) over a 30 minute 10% to 90% B gradient (Buffer A 0.1% TFA in H2O, Buffer B 0.1% TFA in ACN). Mass spectra were obtained for secondary validation of the reaction products using an API® 3500 triple quadrupole mass spectrometer. Chromatograms were offset on both the X and Y axes (by 0.5 minutes and 0.1 A214, respectively) for greater visibility.

## KFNKPFVFLMIEQNTKSPLFMGKVVNPTQ (listed as Homo sapiens) [nNIF]
[1]
  PMA-stimulated NET deployment: blocked
  NET formation triggered by LPS: potent NET-inhibitory activity; also recorded: inhibits NET formation; also recorded: inhibited LPS-stimulated NET deployment; also recorded: inhibit NET formation at nanomolar concentrations
  NET formation triggered by heme: inhibit
  relative inhibition of NETosis (order of potency): nNIF ≈CRISPP>A1ATm^358
Neutrophil elastase (NE)
  NE activity (substrate cleavage): neither nNIF nor CRISPP inhibited NE activity; also recorded: not inhibited

## M_IPPEVKFNKPFVFLMIDQNTKVPLFMGK [CRISPP, consensus peptide based on factors present in the blood of patients with cancer]
[1]
  PMA-stimulated NET deployment: blocked
  NET formation triggered by LPS: inhibits NET formation; also recorded: inhibited LPS-stimulated NET deployment; also recorded: inhibit NET formation at nanomolar concentrations
  NET formation triggered by heme: inhibit
  relative inhibition of NETosis (order of potency): nNIF ≈CRISPP>A1ATm^358
[1]; S. aureus MOI 100:1, peptide 1 nM
  NET formation induced by live Staphylococcus aureus: inhibited
[1]; dengue virus MOI 0.05:1, peptide 1 nM
  NET generation stimulated by dengue virus: inhibited
Neutrophil elastase (NE)
  NE activity (substrate cleavage): neither nNIF nor CRISPP inhibited NE activity
